# Experimental data reported in US5773438A, “Synthetic matrix metalloprotease inhibitors and use thereof” (Glycomed Incorporated, priority 1994, dated 1998).
# “Also recorded” adds a separate entry of the source.
# Legend:
# corneal vessels = test: inhibition of angiogenesis, rat cornea pellet implant (Walker 256 extract); format: in vivo; settings: 10 mg/mL in 55% DMSO, infused into vena cava 0.8 mL/24 hr, six days
# Procedure: A crude extract (30 mg/mL protein) of Walker 256 carcinoma, a rat malignant tumor, was incorporated into Hydron, a slow release polymer, in 1.5 mm diameter pellets. Pellets were implanted in the stroma of the corneas of anesthetized albino rats. […] Controls received only the DMSO solution. After six days, the animals were re-anesthetized and perfused intra-arterially with India ink in order to visualize the corneal vessels. The eyes were then enucleated and fixed in 5% formalin. Control eyes which received only the DMSO solution show massive vessel growth toward the pellet from the limbus.
# [1] = tested on: protease activity in open and chronic wound fluids; test: Azocoll assay of protease activity in open and chronic wound fluids; format: biochemical, human
# Procedure: Fluids were collected from 3 types of human wounds termed closed spontaneously healing wounds, open slowly healing wounds, and open chronic wounds. In the first category were fluids collected from the chest wall of women following mastectomy surgery. Fluids from non-infected wounds that were left open for valid surgical reasons were considered open slowly healing wounds. An occlusive dressing was placed over the wound bed, and fluids were collected after 2-6 hours of occlusion. Finally, fluids were also collected from chronic open wounds by covering the wounds with occlusive dressings. Wounds were considered to be chronic if they were not clinically infected and had been open and not healing for more than 4 weeks.
# The various wound fluids were assayed for matrix metalloproteinase activity using the Azocoll assay essentially as described by Chavira, et al., Analytic Biochemistry (1984), 136:446.
# The fluids were centrifuged, and the supernatants filtered using a 0.45μ sterile Gelman filter. The filtrates were stored frozen at -80° C. until tested for protease activity.
# The effects of four inhibitors on the protease activity present in wound fluids were determined. The inhibitors were: compounds
# These inhibitors were compared to certain other inhibitors and these were UL001 [HSCH2 CH(CH2 CH(CH3)2)CO--Phe--Ala--NH2 ] obtained from Peptides International and MP506, obtained from Elastin Products. EDTA (ethylenediamine tetraacetic acid) and PMSF (phenylmethylsulfonyl fluoride) were also studied.
# Briefly, 900 μl of the Azocoll substrate suspension in buffer ([…] in 50 mM TRIS, pH 7.8, 1 mM CaCl2) was added to 1.5 ml microcentrifuge tubes then 50 μl of inhibitor (or buffer) and 50 μl of chronic wound fluid (or collagenase standard) were added to the reaction tube. The reaction tubes were placed at 37° C. in a shaker that inverted the tubes 30 times per minute. After 24 hours of incubation, the reaction tubes were centrifuges at 10,000 X g and the absorbance of the supernatant solution was measured at 520 nm with a Milton-Roy spectrophotometer. Proteolysis of Azocoll substrate generates soluble colored fragments from the insoluble Azocoll substrate. Wound fluid samples were incubated alone or with the inhibitors. Controls included incubation of the Azocoll substrate with the assay buffer to measure spontaneous degradation of the substrate. A standard curve for digestion of the Azocoll substrate was generated by incubation of the Azocoll with crude bacterial collagenase. Protease levels were expressed as net μg of collagenase equivalent per ml of chronic wound fluid. In the figures, certain of the wound fluids are referred to by an individual name.
# B16-F10 murine melanoma = test: experimental metastasis assay in C57 mice; format: in vivo, Female C57 BL/6 mice; settings: days 35-37; 150 mg/kg/d ip; p<0.05
# Procedure: Female C57 BL/6 mice, 4-6 weeks old (15-20 grams), from Simonsen Laboratories (Gilroy, Calif.) were used for this assay.
# The B16-F10 murine melanoma was obtained from the American Type Tissue Culture Collection, and routinely propagated in DMEM (Dulbecco's modified eagles medium)+10% fetal calf serum in plastic tissue culture flasks in a humidified 5% CO2 incubator at 37° C. B16-F10 tumor cells were harvested with trypsin-EDTA (ethylenediamine-tetraacetic acid), washed with PBS (phosphate buffered saline, 2x), resuspended at a concentration of 5×10^5 cells/ml, and held on ice prior to injection. Animals were challenged with 5×10^4 cells in a volume of 0.1 ml intravenously (10 animals/treatment group). Animals were randomly distributed prior to assignment to treatment groups.
# Survival times were recorded for animals in the various treatment groups, and results were evaluated using Chi-Squared statistical analysis.
# common carotid artery = test: anti-restenotic assay, balloon catheter injury of common carotid artery; format: in vivo, Male Sprague-Dawley rats
# Procedure: Male Sprague-Dawley rats (3-3.5 months old) were subject to balloon catheter injury of the common carotid artery (Clowes et al. Lab. Invest. (1983) 49:208-215). […] Rats were sacrificed at 4 days after injury. They were injected with 25 mg/kg BrdU subcutaneously at 17, 9 and 1 hours before sacrifice to label replicating vascular smooth muscle cells. A catheter was inserted into the aorta, and the carotids were fixed by perfusion with 4% paraformaldehyde at physiologic pressure. After carefully dissecting out the common carotid, the vessels were embedded in paraffin, cross-sectioned and stained with anti-BrdU antibody and hematoxylin, and an index of medical smooth muscle cell replication was obtained by expressing the % labelled SMCs ([…] et al., J. Clin. Invest. (1992) 90:2044-2049). After fixation, the common carotids were pinned out with the intimal surface facing upwards, and cells present on the intimal surface were stained with an antibody to histone proteins. […] The surface cells were counted and the number of cells per unit area was determined. […] The animals were injected with BrdU before sacrifice to label replicating cells in the media and intima. By 10 days after injury, the normal vessel forms a thickened neointima; smooth muscle migration in to the intima and subsequent proliferation contribute to this thickening. Cross-sections of the vessel were cut and stained with anti-BrdU and hematoxylin. Intimal cross-sectional areas were measured using a computer digitizing system. […] All data are presented as mean+SEM, and the data were analyzed by student's test.
compound,measurement,setting,value
"CNC(=O)[C@H](Cc1c[nH]c2ccccc12)NC(=O)[C@@H](CC(=O)NO)CC(C)C [Compound 5A, N-[D,L-2-isobutyl-3-(N'-hydroxycarbonylamido)-propanoyl]-tryptophan methylamide]",corneal vessel growth versus controls,corneal vessels,"vessels much shorter and/or much finer than in the controls, barely filling with ink"
same,effect on proteolytic activity of open and chronic wound fluids,[1]; FIG. 5,very effective inhibitors
same,inhibition of Azocoll-degrading proteases in wound fluids,[1]; FIG. 6,very effectively; also recorded: very effective inhibitors
same,reduction of proteolytic activity in open or chronic wound fluids,[1]; fluids with high levels of Azocoll-degrading protease activity,95%
same,survival of mice versus vehicle control,B16-F10 murine melanoma,significant increase in the survival
same,number of cells per unit area (intimal surface) versus CMC controls,"common carotid artery; 4 day, 100 mg/kg i.p. daily",significant decrease
same,cell migration into the intima,common carotid artery; 4 days after balloon injury,very large decrease
same,intimal cell replication rate versus controls,common carotid artery; 10 day,significantly higher
same,lesion thickness,common carotid artery; 10 day,dramatically reduced
same,intimal cross-sectional area versus CMC controls,"common carotid artery; 10 day, daily administration",significant decrease
